Reference: US20230125482A1, “PROTEIN KINASE C MODULATORS” (Young Therapeutics, LLC, priority 2020, published 2023)
Where a SMILES comes first, the peptide text is derived from it. The star is where a group is joined. Myristoyl = CCCCCCCCCCCCCC(=O)*

Key:
[1] = Solubility of peptide; assay type: physicochemical
[2] = system: isolated rat hearts; assay: Myocardial ischemia/reperfusion (I/R) injury in isolated rat hearts (Langendorff, ex vivo); conditions: for Final Coronary Flow / Final Heart Rate / Final LVDP / Final LVEDP / Final LVESP / Final dP/dtmax / Final dP/dtmin: 50 min post-reperfusion; for Infarct Size: I(30 min)/R(50 min), infarct tissue weight/total tissue weight; for Initial Coronary Flow / Initial Heart Rate / Initial LVDP / Initial LVEDP / Initial LVESP / Initial dP/dtmax / Initial dP/dtmin: baseline before ischemia
Description: Rat hearts were isolated from anesthetized male Sprague Dawley rats (275-325 g), placed in ice-cold Krebs' buffer, and placed onto a Langendorff heart apparatus and retro perfused with Krebs' buffer at a constant pressure of 80 mmHg (FIG. 1). A pressure transducer measures heart rate, left ventricular end-systolic pressure, end-diastolic pressure, dP/dt max, and dP/dt min. Coronary flow is measured via a flow probe connected to the perfusion tubing. Cardiac function was recorded throughout the experimental protocol using a pressure transducer inserted into the left ventricle (15 min baseline; global I(30 min)/R(50 min)). Selected peptides of TABLE 1 or vehicle (control [0.05 to 0.2% Dimethylsulfoxide) were given during the first 5 min of reperfusion. All peptide inhibitors or activators were dissolved in 28% DMSO and the final concentration of DMSO with peptides or without peptides (control I/R hearts) delivered to all hearts was 0.06%. Statistical analysis was performed using ANOVA and Bonferroni-Dunn post-hoc test.
At the end of the experimental protocol, hearts were removed from the Langendorff apparatus, and frozen for 30 min at −20° C. Hearts were sectioned (2 mm) from base to apex and placed in 1% TTC for ˜10 min at 37° C. Viable tissue stained red and infarcted tissue was unstained (pale). Total tissue sections were weighed and infarcted tissue was separated from viable tissue and weighed to determine infarct size (i.e. infarct tissue weight/total tissue weight).

For CCCCCCCCCCCCCC(=O)N[C@@H](Cc1ccc(O)cc1)C(=O)NCC(=O)N[C@@H](CCCNC(=N)N)C(=O)N[C@@H](CCCCN)C(=O)N[C@@H](CCCCN)C(=O)N[C@@H](CCCNC(=N)N)C(=O)N[C@@H](CCCNC(=N)N)C(=O)N[C@@H](CCC(N)=O)C(=O)N[C@@H](CCCNC(=N)N)C(=O)N[C@@H](CCCNC(=N)N)C(=O)N[C@@H](CCCNC(=N)N)C(=O)N[C@@H](CS)C(=O)N[C@@H](CS)C(=O)N[C@@H](CCC(=O)O)C(=O)N[C@@H](C)C(=O)N[C@H](C(=O)N[C@@H](CO)C(=O)N[C@@H](CC(C)C)C(=O)N[C@@H](CCCCN)C(=O)N1CCC[C@H]1C(=O)N[C@H](C(=O)O)[C@@H](C)O)C(C)C [Myr + TAT + PKCε-] (Myristoyl-YGRKKRRQRRRCCEAVSLKPT-OH; C-terminus assumed), the solubility [1] was no more than 100 mM, the “Final Coronary Flow” value ([2]; 100 pM) was 10 ± 1 mL/min and the “Final Heart Rate” value ([2]; 100 pM) was 252 ± 8 BPM. For the same compound, the “Final LVDP” value ([2]; 100 pM) was 47 ± 11 mmHg, the “Final LVEDP” value ([2]; 100 pM) was 47 ± 10 mmHg and the “Final LVESP” value ([2]; 100 pM) was 94 ± 14 mmHg. The “Final dP/dtmax” value ([2]; 100 pM) was 1021 ± 246 mmHg/s, the “Final dP/dtmin” value ([2]; 100 pM) was −688 ± 142 mmHg/s and the “Infarct Size” value ([2]; 100 pM) was 18 ± 1%. For the same compound, the “Initial Coronary Flow” value ([2]; 100 pM) was 18 ± 2 mL/min, the “Initial Heart Rate” value ([2]; 100 pM) was 285 ± 6 BPM and the “Initial LVDP” value ([2]; 100 pM) was 89 ± 3 mmHg. For the same compound, the “Initial LVEDP” value ([2]; 100 pM) was 10 ± 0.4 mmHg, the “Initial LVESP” value ([2]; 100 pM) was 100 ± 3 mmHg and the “Initial dP/dtmax” value ([2]; 100 pM) was 2457 ± 37 mmHg/s. For the same compound, the “Initial dP/dtmin” value ([2]; 100 pM) was −1726 ± 49 mmHg/s, the “Final Coronary Flow” value ([2]; 1 nM) was 10 ± 1 mL/min and the “Final Heart Rate” value ([2]; 1 nM) was 266 ± 6 BPM. For the same compound, the “Final LVDP” value ([2]; 1 nM) was 49 ± 8 mmHg, the “Final LVEDP” value ([2]; 1 nM) was 52 ± 9 mmHg and the “Final LVESP” value ([2]; 1 nM) was 101 ± 9 mmHg. The “Final dP/dtmax” value ([2]; 1 nM) was 1147 ± 156 mmHg/s, the “Final dP/dtmin” value ([2]; 1 nM) was −733 ± 68 mmHg/s and the “Infarct Size” value ([2]; 1 nM) was 10 ± 2 %. For the same compound, the “Initial Coronary Flow” value ([2]; 1 nM) was 18 ± 1 mL/min, the “Initial Heart Rate” value ([2]; 1 nM) was 293 ± 13 BPM and the “Initial LVDP” value ([2]; 1 nM) was 91 ± 4 mmHg. For the same compound, the “Initial LVEDP” value ([2]; 1 nM) was 10 ± 1 mmHg, the “Initial LVESP” value ([2]; 1 nM) was 101 ± 5 mmHg and the “Initial dP/dtmax” value ([2]; 1 nM) was 2440 ± 72 mmHg/s. For the same compound, the “Initial dP/dtmin” value ([2]; 1 nM) was −1674 ± 106 mmHg/s, the “Final Coronary Flow” value ([2]; 30 nM) was 9 ± 1 mL/min and the “Final Heart Rate” value ([2]; 30 nM) was 261 ± 11 BPM. For the same compound, the “Final LVDP” value ([2]; 30 nM) was 48 ± 10 mmHg, the “Final LVEDP” value ([2]; 30 nM) was 50 ± 15 mmHg and the “Final LVESP” value ([2]; 30 nM) was 108 ± 3 mmHg. The “Final dP/dtmax” value ([2]; 30 nM) was 1059 ± 336 mmHg/s, the “Final dP/dtmin” value ([2]; 30 nM) was −733 ± 99 mmHg/s and the “Infarct Size” value ([2]; 30 nM) was 14 ± 2%. The “Initial Coronary Flow” value ([2]; 30 nM) was 16 ± 1 mL/min, the “Initial Heart Rate” value ([2]; 30 nM) was 271 ± 7 BPM and the “Initial LVDP” value ([2]; 30 nM) was 88 ± 2 mmHg. For the same compound, the “Initial LVEDP” value ([2]; 30 nM) was 11 ± 1 mmHg, the “Initial LVESP” value ([2]; 30 nM) was 99 ± 2 mmHg and the “Initial dP/dtmax” value ([2]; 30 nM) was 2344 ± 22 mmHg/s. For the same compound, the “Initial dP/dtmin” value ([2]; 30 nM) was −1588 ± 18 mmHg/s, the “restoration of post-reperfused cardiac function compared to control I/R hearts” value ([2]; 100 nM given at the beginning of reperfusion for 5 minutes, 25 to 50 min) was “significantly restored post-reperfused cardiac function” and the “Final Coronary Flow” value ([2]; 100 nM) was 11 ± 2 mL/min. For the same compound, the “Final Heart Rate” value ([2]; 100 nM) was 254 ± 12 BPM, the “Final LVDP” value ([2]; 100 nM) was 66 ± 6 mmHg and the “Final LVEDP” value ([2]; 100 nM) was 48 ± 13 mmHg. For the same compound, the “Final LVESP” value ([2]; 100 nM) was 114 ± 11 mmHg, the “Final dP/dtmin” value ([2]; 100 nM) was −981 ± 135 mmHg/s and the “Infarct Size” value ([2]; 100 nM) was 8 ± 2 %. The “Initial Coronary Flow” value ([2]; 100 nM) was 20 ± 2 mL/min, the “Initial Heart Rate” value ([2]; 100 nM) was 301 ± 10 BPM and the “Initial LVDP” value ([2]; 100 nM) was 89 ± 4 mmHg. The “Initial LVEDP” value ([2]; 100 nM) was 9 ± 1 mmHg, the “Initial LVESP” value ([2]; 100 nM) was 98 ± 3 mmHg and the “Initial dP/dtmax” value ([2]; 100 nM) was 2528 ± 133 mmHg/s. For the same compound, the “Initial dP/dtmin” value ([2]; 100 nM) was −1807 ± 125 mmHg/s, the “Final Coronary Flow” value ([2]; 1 μM) was 10 ± 3 mL/min and the “Final Heart Rate” value ([2]; 1 μM) was 296 ± 86 BPM. For the same compound, the “Final LVDP” value ([2]; 1 μM) was 40 ± 15 mmHg, the “Final LVEDP” value ([2]; 1 μM) was 60 ± 12 mmHg and the “Final LVESP” value ([2]; 1 μM) was 101 ± 6 mmHg. The “Final dP/dtmax” value ([2]; 1 μM) was 794 ± 220 mmHg/s, the “Final dP/dtmin” value ([2]; 1 μM) was −616 ± 122 mmHg/s and the “Infarct Size” value ([2]; 1 μM) was 5 ± 2 %. For the same compound, the “Initial Coronary Flow” value ([2]; 1 μM) was 21 ± 1 mL/min, the “Initial Heart Rate” value ([2]; 1 μM) was 274 ± 15 BPM and the “Initial LVDP” value ([2]; 1 μM) was 94 ± 5 mmHg. The “Initial LVEDP” value ([2]; 1 μM) was 10 ± 2 mmHg, the “Initial LVESP” value ([2]; 1 μM) was 104 ± 6 mmHg and the “Initial dP/dtmax” value ([2]; 1 μM) was 2493 ± 128 mmHg/s. The “Initial dP/dtmin” value ([2]; 1 μM) was −1786 ± 97 mmHg/s, the “cardio depressive effect on post-reperfused cardiac function compared to all other groups” value ([2]; 10 μM) was “most cardio depressive effect” and the “reduction of infarct size compared to control I/R hearts” value ([2]; 10 μM) was “reduced infarct size”. The “stunning concentration relative to the concentration needed to produce a 50% reduction in infarct size” value ([2]; 10 μM) was 10,000 times, the “stunning of the heart during reperfusion” value ([2]; 10 μM) was “caused stunning” and the “effect on reducing infarct size” value ([2]; 10 μM and 1 μM) was “most robust effect on reducing infarct size”. For the same compound, the “Final Coronary Flow” value ([2]; 10 μM) was 0 mL/min, the “Final Heart Rate” value ([2]; 10 μM) was 811 ± 79 BPM and the “Final LVDP” value ([2]; 10 μM) was 1 ± 0.2 mmHg. For the same compound, the “Final LVEDP” value ([2]; 10 μM) was 68 ± 17 mmHg, the “Final LVESP” value ([2]; 10 μM) was 69 ± 17 mmHg and the “Final dP/dtmax” value ([2]; 10 μM) was 54 ± 14 mmHg/s. The “Final dP/dtmin” value ([2]; 10 μM) was −56 ± 14 mmHg/s, the “Infarct Size” value ([2]; 10 μM) was 5 ± 2 % and the “Initial Coronary Flow” value ([2]; 10 μM) was 18 ± 2 mL/min. The “Initial Heart Rate” value ([2]; 10 μM) was 285 ± 24 BPM, the “Initial LVDP” value ([2]; 10 μM) was 92 ± 3 mmHg and the “Initial LVEDP” value ([2]; 10 μM) was 8 ± 2 mmHg. The “Initial LVESP” value ([2]; 10 μM) was 101 ± 4 mmHg, the “Initial dP/dtmax” value ([2]; 10 μM) was 2540 ± 158 mmHg/s and the “Initial dP/dtmin” value ([2]; 10 μM) was −1772 ± 141 mmHg/s. For the same compound, the “minimum effective concentration, tissue-salvaging effects (infarct size)” value ([2]; ex vivo rat I/R hearts) was 1 nM and the “decrease in minimum effective concentration (increase in potency to reduce infarct size) as compared to Myr+PKCε−” value ([2]; infarct size, FIG. 3) was 10,000 ×.
